# Test results from PMC12090182, “Repurposing of the RIPK1-Selective Benzo[1,4]oxazepin-4-one Scaffold for the Development of a Type III LIMK1/2 Inhibitor” (ACS Chemical Biology, 2025).
# What was measured:
# Format in all cases: binding
# [1] = target: TYK2(JH2domain-pseudokinase) (Homo sapiens, UniProt P29597); experiment: scanMAX KINOMEscan (Eurofins); settings: compound concentration 100 nM; Entrez TYK2; read-out: Percent Control
# Description: (§1) Supplement cb5c00097_si_002.xlsx, sheet "Table S6 (Eurofins Selectivity)" | column: Percent Control
# LATS1 = LATS1 (Homo sapiens, UniProt O95835); experiment: scanMAX KINOMEscan (Eurofins); settings: 1000 nM, read-out: Percent Control
# Description: as §1
# [2] = target: JAK1(JH1domain-catalytic) (Homo sapiens, UniProt P23458); experiment: scanMAX KINOMEscan (Eurofins); settings: 1000 nM, read-out: Percent Control
# Description: as §1
# CAMK2A = CAMK2A (Homo sapiens, UniProt Q9UQM7); experiment: scanMAX KINOMEscan (Eurofins); settings: 1000 nM, read-out: Percent Control
# Description: as §1
# [3] = target: JAK2(JH1domain-catalytic) (Homo sapiens, UniProt O60674); experiment: scanMAX KINOMEscan (Eurofins); settings: compound concentration 100 nM; Entrez JAK2; read-out: Percent Control
# Description: as §1
# BMPR1B = BMPR1B (Homo sapiens, UniProt O00238); experiment: scanMAX KINOMEscan (Eurofins); settings: read-out: Percent Control
# Description: as §1
# NIK = NIK (Homo sapiens, UniProt Q99558); experiment: scanMAX KINOMEscan (Eurofins); settings: compound concentration 100 nM; Entrez MAP3K14; read-out: Percent Control
# Description: as §1
# MST1R = MST1R (Homo sapiens, UniProt Q04912); experiment: scanMAX KINOMEscan (Eurofins); settings: 1000 nM, read-out: Percent Control
# Description: as §1
# PAK1 = PAK1 (Homo sapiens, UniProt Q13153); experiment: scanMAX KINOMEscan (Eurofins); settings: 1000 nM, read-out: Percent Control
# Description: as §1
# EPHB4 = EPHB4 (Homo sapiens, UniProt P54760); experiment: scanMAX KINOMEscan (Eurofins); settings: 1000 nM, read-out: Percent Control
# Description: as §1
# TLK1 = TLK1 (Homo sapiens, UniProt Q9UKI8); experiment: scanMAX KINOMEscan (Eurofins); settings: compound concentration 100 nM; Entrez TLK1; read-out: Percent Control
# Description: as §1
# PIKFYVE = PIKFYVE (Homo sapiens, UniProt Q9Y2I7); experiment: scanMAX KINOMEscan (Eurofins); settings: compound concentration 100 nM; Entrez PIKFYVE; read-out: Percent Control
# Description: as §1
# PIP5K1A = PIP5K1A (Homo sapiens, UniProt Q99755); experiment: scanMAX KINOMEscan (Eurofins); settings: 1000 nM, read-out: Percent Control
# Description: as §1
# CSNK1G2 = CSNK1G2 (Homo sapiens, UniProt P78368); experiment: scanMAX KINOMEscan (Eurofins); settings: read-out: Percent Control
# Description: as §1
# TAK1 = TAK1 (Homo sapiens, UniProt O43318); experiment: scanMAX KINOMEscan (Eurofins); settings: 1000 nM, read-out: Percent Control
# Description: as §1
# STK16 = STK16 (Homo sapiens, UniProt O75716); experiment: scanMAX KINOMEscan (Eurofins); settings: compound concentration 100 nM; Entrez STK16; read-out: Percent Control
# Description: as §1
# FGFR2 = FGFR2 (Homo sapiens, UniProt P21802); experiment: scanMAX KINOMEscan (Eurofins); settings: read-out: Percent Control
# Description: as §1
# FGR = FGR (Homo sapiens, UniProt P09769); experiment: scanMAX KINOMEscan (Eurofins); settings: read-out: Percent Control
# Description: as §1
# ULK1 = ULK1 (Homo sapiens, UniProt O75385); experiment: scanMAX KINOMEscan (Eurofins); settings: compound concentration 100 nM; Entrez ULK1; read-out: Percent Control
# Description: as §1
# MEK3 = MEK3 (Homo sapiens, UniProt P46734); experiment: scanMAX KINOMEscan (Eurofins); settings: 1000 nM, read-out: Percent Control
# Description: as §1
# KIT = KIT (Homo sapiens, UniProt P10721); experiment: scanMAX KINOMEscan (Eurofins); settings: 1000 nM, read-out: Percent Control
# Description: as §1
# ERK1 = ERK1 (Homo sapiens, UniProt P27361); experiment: scanMAX KINOMEscan (Eurofins); settings: read-out: Percent Control
# Description: as §1
# TAOK1 = TAOK1 (Homo sapiens, UniProt Q7L7X3); experiment: scanMAX KINOMEscan (Eurofins); settings: compound concentration 100 nM; Entrez TAOK1; read-out: Percent Control
# Description: as §1
# ROCK1 = ROCK1 (Homo sapiens, UniProt Q13464); experiment: scanMAX KINOMEscan (Eurofins); settings: 1000 nM, read-out: Percent Control
# Description: as §1
# PRKD3 = PRKD3 (Homo sapiens, UniProt O94806); experiment: scanMAX KINOMEscan (Eurofins); settings: 1000 nM, read-out: Percent Control
# Description: as §1
# MELK = MELK (Homo sapiens, UniProt Q14680); experiment: scanMAX KINOMEscan (Eurofins); settings: compound concentration 100 nM; Entrez MELK; read-out: Percent Control
# Description: as §1
# ERK5 = ERK5 (Homo sapiens, UniProt Q13164); experiment: scanMAX KINOMEscan (Eurofins); settings: 1000 nM, read-out: Percent Control
# Description: as §1
# PIK3CA = PIK3CA (Homo sapiens, UniProt P42336); experiment: scanMAX KINOMEscan (Eurofins); settings: 1000 nM, read-out: Percent Control
# Description: as §1
# EPHA4 = EPHA4 (Homo sapiens, UniProt P54764); experiment: scanMAX KINOMEscan (Eurofins); settings: read-out: Percent Control
# Description: as §1
# PFTAIRE2 = PFTAIRE2 (Homo sapiens, UniProt Q96Q40); experiment: scanMAX KINOMEscan (Eurofins); settings: 1000 nM, read-out: Percent Control
# Description: as §1
# CSNK1E = CSNK1E (Homo sapiens, UniProt P49674); experiment: scanMAX KINOMEscan (Eurofins); settings: read-out: Percent Control
# Description: as §1
# FLT3-autoinhibited = FLT3-autoinhibited (Homo sapiens, UniProt P36888); experiment: scanMAX KINOMEscan (Eurofins); settings: 1000 nM, read-out: Percent Control
# Description: as §1
# EPHA1 = EPHA1 (Homo sapiens, UniProt P21709); experiment: scanMAX KINOMEscan (Eurofins); settings: 1000 nM, read-out: Percent Control
# Description: as §1
# DAPK1 = DAPK1 (Homo sapiens, UniProt P53355); experiment: scanMAX KINOMEscan (Eurofins); settings: 1000 nM, read-out: Percent Control
# Description: as §1
# FGFR3(G697C) = FGFR3(G697C) (Homo sapiens, UniProt P22607, G697C); experiment: biochemical; settings: read-out: Percent Control
# Sequence of ERK1 (P27361 whole entry): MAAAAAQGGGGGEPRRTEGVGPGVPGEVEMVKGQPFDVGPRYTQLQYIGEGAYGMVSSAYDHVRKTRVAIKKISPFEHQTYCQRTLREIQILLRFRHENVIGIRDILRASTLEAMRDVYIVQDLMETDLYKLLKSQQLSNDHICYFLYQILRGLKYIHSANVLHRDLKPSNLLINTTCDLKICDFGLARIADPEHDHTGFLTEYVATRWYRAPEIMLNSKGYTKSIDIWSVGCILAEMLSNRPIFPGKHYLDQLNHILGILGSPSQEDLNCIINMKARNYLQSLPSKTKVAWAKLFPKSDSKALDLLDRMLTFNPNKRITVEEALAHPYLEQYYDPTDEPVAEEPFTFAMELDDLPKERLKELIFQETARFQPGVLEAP
# Sequence of CSNK1E (P49674 whole entry): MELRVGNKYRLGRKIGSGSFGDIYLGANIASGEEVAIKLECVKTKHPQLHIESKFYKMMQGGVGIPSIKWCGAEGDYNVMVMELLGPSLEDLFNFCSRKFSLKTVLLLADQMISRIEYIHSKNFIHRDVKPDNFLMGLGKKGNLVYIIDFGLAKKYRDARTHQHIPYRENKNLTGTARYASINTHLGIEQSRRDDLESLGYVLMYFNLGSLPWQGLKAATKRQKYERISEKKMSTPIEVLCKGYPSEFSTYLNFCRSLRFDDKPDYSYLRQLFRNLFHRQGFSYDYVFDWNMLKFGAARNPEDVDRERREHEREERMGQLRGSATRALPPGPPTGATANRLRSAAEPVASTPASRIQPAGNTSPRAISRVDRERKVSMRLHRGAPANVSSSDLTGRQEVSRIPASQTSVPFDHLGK
# Sequence of BMPR1B (O00238 14-502): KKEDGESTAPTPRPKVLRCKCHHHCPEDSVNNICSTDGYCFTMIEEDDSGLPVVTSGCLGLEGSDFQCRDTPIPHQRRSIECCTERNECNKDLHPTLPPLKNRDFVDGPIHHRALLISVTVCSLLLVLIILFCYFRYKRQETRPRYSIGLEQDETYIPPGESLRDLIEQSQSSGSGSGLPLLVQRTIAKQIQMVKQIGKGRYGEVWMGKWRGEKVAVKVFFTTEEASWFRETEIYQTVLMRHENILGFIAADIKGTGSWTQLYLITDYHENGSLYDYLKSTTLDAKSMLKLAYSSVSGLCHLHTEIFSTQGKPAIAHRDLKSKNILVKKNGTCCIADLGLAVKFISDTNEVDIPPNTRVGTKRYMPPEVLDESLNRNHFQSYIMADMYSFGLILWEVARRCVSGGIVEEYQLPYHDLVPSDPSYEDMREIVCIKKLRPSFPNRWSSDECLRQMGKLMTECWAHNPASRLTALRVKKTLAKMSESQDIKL
# Sequence of CSNK1G2 (P78368 whole entry): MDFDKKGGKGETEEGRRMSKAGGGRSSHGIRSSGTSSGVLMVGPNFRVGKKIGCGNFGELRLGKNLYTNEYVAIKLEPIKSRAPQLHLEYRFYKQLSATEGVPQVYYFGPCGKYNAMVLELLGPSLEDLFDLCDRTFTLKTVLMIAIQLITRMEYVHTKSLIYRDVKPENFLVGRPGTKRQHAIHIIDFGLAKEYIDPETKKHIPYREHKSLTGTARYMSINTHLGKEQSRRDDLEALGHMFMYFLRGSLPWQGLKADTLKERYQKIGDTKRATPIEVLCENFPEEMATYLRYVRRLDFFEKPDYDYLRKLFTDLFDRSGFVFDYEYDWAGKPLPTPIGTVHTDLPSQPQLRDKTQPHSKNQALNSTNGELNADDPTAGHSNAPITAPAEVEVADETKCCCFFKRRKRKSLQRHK
# Sequence of EPHA4 (P54764 20-986): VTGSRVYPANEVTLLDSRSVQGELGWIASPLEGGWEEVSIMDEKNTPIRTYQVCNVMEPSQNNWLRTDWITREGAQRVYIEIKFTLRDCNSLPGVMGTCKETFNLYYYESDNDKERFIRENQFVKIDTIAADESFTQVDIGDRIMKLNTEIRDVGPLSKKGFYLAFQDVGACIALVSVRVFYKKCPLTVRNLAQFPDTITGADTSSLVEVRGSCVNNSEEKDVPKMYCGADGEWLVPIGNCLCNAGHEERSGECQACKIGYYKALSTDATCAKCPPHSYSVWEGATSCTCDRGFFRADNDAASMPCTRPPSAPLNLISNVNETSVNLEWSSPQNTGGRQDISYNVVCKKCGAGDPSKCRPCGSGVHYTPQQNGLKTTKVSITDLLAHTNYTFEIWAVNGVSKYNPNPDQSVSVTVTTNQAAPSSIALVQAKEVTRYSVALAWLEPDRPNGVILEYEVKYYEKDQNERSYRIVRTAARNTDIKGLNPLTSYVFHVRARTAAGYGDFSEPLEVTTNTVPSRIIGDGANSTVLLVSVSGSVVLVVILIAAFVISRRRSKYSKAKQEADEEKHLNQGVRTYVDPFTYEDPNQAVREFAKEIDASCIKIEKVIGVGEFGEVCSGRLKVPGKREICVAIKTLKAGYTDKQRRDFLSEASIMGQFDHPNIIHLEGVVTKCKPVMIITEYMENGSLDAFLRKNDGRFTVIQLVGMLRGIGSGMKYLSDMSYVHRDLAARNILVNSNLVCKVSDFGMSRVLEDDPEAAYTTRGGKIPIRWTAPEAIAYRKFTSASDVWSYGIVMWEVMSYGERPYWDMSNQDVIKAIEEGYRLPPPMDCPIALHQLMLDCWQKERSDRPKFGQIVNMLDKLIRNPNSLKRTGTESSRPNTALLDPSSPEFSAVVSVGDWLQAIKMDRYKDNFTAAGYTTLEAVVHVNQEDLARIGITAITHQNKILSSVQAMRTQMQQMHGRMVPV
# Sequence of FGR (P09769 whole entry): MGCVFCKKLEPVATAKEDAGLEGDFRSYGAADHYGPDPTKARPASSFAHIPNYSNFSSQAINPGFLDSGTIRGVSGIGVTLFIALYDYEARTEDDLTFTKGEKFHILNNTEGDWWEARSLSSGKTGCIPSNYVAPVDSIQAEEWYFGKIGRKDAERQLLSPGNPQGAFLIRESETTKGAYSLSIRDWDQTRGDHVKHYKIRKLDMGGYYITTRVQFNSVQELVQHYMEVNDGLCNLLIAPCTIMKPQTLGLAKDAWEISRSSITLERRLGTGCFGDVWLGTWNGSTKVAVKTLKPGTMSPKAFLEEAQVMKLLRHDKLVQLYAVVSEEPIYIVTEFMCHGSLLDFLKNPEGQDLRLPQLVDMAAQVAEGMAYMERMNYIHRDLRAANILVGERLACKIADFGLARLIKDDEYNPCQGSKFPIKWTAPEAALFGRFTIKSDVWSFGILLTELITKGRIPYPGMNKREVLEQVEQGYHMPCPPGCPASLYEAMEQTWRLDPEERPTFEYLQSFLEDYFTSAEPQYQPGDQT
# Sequence of FGFR2 (P21802 22-821): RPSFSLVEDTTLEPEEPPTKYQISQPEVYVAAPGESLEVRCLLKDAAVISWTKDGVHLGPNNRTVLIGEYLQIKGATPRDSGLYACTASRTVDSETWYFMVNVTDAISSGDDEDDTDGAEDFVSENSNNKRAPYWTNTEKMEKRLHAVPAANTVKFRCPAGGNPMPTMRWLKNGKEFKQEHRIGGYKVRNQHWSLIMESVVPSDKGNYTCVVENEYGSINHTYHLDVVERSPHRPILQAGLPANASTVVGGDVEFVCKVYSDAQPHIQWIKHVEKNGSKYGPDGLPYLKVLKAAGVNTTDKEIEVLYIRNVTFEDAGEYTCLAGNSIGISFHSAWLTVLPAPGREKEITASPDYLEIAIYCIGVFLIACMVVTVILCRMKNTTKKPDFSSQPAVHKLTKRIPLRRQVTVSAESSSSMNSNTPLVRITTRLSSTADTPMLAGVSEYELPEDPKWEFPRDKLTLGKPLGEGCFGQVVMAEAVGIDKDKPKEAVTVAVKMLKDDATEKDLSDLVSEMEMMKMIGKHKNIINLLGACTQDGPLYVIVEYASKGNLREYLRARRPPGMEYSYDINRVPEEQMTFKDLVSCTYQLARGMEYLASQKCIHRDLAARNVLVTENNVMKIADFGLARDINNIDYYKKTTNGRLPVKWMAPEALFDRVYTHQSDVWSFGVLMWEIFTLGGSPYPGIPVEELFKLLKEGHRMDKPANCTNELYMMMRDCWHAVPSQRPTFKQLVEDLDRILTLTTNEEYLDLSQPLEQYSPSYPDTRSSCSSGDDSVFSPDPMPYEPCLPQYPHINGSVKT
# Sequence of TAK1 (O43318 whole entry): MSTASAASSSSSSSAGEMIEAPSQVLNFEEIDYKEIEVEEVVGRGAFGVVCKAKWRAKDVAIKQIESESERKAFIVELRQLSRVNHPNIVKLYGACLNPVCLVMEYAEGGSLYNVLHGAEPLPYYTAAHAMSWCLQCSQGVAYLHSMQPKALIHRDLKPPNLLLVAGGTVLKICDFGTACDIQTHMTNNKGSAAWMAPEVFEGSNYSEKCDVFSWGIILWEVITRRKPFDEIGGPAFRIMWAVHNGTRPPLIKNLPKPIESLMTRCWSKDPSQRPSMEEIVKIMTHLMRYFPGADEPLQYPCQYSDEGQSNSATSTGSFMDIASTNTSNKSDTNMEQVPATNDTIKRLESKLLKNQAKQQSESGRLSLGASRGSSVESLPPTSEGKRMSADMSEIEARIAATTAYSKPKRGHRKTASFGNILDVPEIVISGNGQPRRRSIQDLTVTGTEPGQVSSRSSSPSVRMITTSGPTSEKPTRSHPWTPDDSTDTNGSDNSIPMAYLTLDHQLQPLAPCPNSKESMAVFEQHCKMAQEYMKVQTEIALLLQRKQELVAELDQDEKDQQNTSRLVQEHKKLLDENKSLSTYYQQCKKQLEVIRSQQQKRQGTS
# Sequence of JAK1(JH1domain-catalytic) (P23458 866-1154): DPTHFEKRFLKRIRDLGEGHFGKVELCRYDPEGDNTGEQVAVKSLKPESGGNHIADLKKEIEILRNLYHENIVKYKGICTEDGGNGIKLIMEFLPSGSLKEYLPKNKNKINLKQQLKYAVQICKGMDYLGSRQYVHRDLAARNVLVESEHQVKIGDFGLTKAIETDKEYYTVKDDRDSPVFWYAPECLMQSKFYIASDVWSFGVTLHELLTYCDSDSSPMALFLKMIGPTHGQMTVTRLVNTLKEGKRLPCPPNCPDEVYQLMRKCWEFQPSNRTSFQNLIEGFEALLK
smiles,measurement,setting,value
"CN1C(=O)[C@@H](N2CCc3c(nn(Cc4ccccc4)c3C(N)=O)C2=O)COc2cc(Cl)ccc21 [Compound 10, (S)-2-benzyl-6-(8-chloro-5-methyl-4-oxo-2,3,4,5-tetrahydrobenzo[b][1,4]oxazepin-3-yl)-7-oxo-4,5,6,7-tetrahydro-2H-pyrazolo[3,4-c]pyridine-3-carboxamide]",remaining binding at 0.1 µM,[1],100%
same,remaining binding at 1 µM,LATS1,82%
same,remaining binding at 1 µM,[2],89%
same,remaining binding at 1 µM,CAMK2A,90%
same,remaining binding at 0.1 µM,[3],81%
same,remaining binding at 1 µM,BMPR1B; 1000 nM,100%
same,remaining binding at 0.1 µM,"BMPR1B; compound concentration 100 nM, Entrez BMPR1B",88%
same,remaining binding at 0.1 µM,NIK,80%
same,remaining binding at 1 µM,MST1R,91%
same,remaining binding at 1 µM,PAK1,76%
same,remaining binding at 1 µM,EPHB4,94%
same,remaining binding at 0.1 µM,TLK1,88%
same,remaining binding at 0.1 µM,PIKFYVE,98%
same,remaining binding at 1 µM,PIP5K1A,69%
same,remaining binding at 1 µM,CSNK1G2; 1000 nM,100%
same,remaining binding at 0.1 µM,"CSNK1G2; compound concentration 100 nM, Entrez CSNK1G2",91%
same,remaining binding at 1 µM,TAK1,82%
same,remaining binding at 0.1 µM,STK16,80%
same,remaining binding at 1 µM,FGFR2; 1000 nM,100%
same,remaining binding at 0.1 µM,"FGFR2; compound concentration 100 nM, Entrez FGFR2",100%
same,remaining binding at 1 µM,FGR; 1000 nM,100%
same,remaining binding at 0.1 µM,"FGR; compound concentration 100 nM, Entrez FGR",77%
same,remaining binding at 0.1 µM,ULK1,100%
same,remaining binding at 1 µM,MEK3,97%
same,remaining binding at 1 µM,KIT,89%
same,remaining binding at 1 µM,ERK1; 1000 nM,100%
same,remaining binding at 0.1 µM,"ERK1; compound concentration 100 nM, Entrez MAPK3",93%
same,remaining binding at 0.1 µM,TAOK1,100%
same,remaining binding at 1 µM,ROCK1,69%
same,remaining binding at 1 µM,PRKD3,92%
same,remaining binding at 0.1 µM,MELK,93%
same,remaining binding at 1 µM,ERK5,86%
same,remaining binding at 1 µM,PIK3CA,92%
same,remaining binding at 1 µM,EPHA4; 1000 nM,100%
same,remaining binding at 0.1 µM,"EPHA4; compound concentration 100 nM, Entrez EPHA4",99%
same,remaining binding at 1 µM,PFTAIRE2,90%
same,remaining binding at 1 µM,CSNK1E; 1000 nM,100%
same,remaining binding at 0.1 µM,"CSNK1E; compound concentration 100 nM, Entrez CSNK1E",91%
same,remaining binding at 1 µM,FLT3-autoinhibited,94%
same,remaining binding at 1 µM,EPHA1,87%
same,remaining binding at 1 µM,DAPK1,96%
same,remaining activity at 1 µM,FGFR3(G697C),100%
